The structures appear in SMILES notation.

One test concerns the target T1, Tyrosinase (Agaricus bisporus, UniProt O42713).
T1 sequence (O42713 whole entry): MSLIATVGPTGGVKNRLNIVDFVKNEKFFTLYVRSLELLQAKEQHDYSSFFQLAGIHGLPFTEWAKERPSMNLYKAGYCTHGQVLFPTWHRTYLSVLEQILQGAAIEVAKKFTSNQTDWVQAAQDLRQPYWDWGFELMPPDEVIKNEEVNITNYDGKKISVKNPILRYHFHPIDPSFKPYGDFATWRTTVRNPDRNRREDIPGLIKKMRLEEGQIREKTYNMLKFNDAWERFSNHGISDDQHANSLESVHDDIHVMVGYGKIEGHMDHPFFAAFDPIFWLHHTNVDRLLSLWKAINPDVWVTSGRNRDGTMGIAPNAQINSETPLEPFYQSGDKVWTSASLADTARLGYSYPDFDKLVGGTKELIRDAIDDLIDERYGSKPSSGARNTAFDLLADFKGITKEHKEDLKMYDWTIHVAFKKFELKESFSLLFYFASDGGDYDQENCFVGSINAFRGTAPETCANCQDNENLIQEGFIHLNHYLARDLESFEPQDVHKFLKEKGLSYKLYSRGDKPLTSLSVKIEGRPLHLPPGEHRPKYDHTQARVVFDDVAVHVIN
Kind of test: Inhibition of mushroom tyrosinase by Lineweaver-Burke double reciprocal plot analysis.
In general, Ki refers to a measure of affinity in units of concentration, obtained from inhibition or displacement. High values mean lower affinity, low ones higher affinity. Regarding `O=Cc1cc(Cc2ccc(O)c(C=O)c2)ccc1O`, the affinity corresponds to a Ki of 48 µM.

The target of another test is T1, Tyrosinase.
Description: Inhibition of mushroom tyrosinase after 10 mins by L-DOPA oxidation assay
As usually defined, the IC50 is the concentration that gives 50% inhibition. High values mean lower potency, low ones higher potency. `O=Cc1cc(Cc2ccc(O)c(C=O)c2)ccc1O` returned a concentration for half-maximal inhibition (IC50) of 74 µM.

On to `COc1cc(Cc2cc(C=O)c(O)c(OC)c2)cc(C=O)c1O`, for which the IC50 was 695 µM. This IC50 lies about 9.4-fold higher than the previous one.

`COc1cc(O)c(C=O)cc1Cc1cc(C=O)c(O)cc1OC`: the midpoint of inhibition, the IC50, lay at 117 µM.

In turn, `O=Cc1cc(Cc2cc(O)c(O)c(C=O)c2)cc(O)c1O` displayed an IC50 of 523 µM. Compared with the last compound, the IC50 is about 4.5-fold higher.

Consider `O=Cc1cc(Cc2cc(C=O)c(O)cc2O)c(O)cc1O`, for which the half-maximal inhibitory concentration (IC50) stood at 76 µM.

Source of the values: ChEMBL document CHEMBL1255174, “Synthesis and biological evaluation of a novel series of bis-salicylaldehydes as mushroom tyrosinase inhibitors” (Bioorg Med Chem Lett, 2010).
